Measurements from patent US11178871B2, “Herbicidal pyrimidine compounds” (BASF SE, priority 2016, dated 2021).

What was measured:
Format in all cases: in vivo
Setaria viridis = test: greenhouse test, post-emergence treatment, SETVI
From the text: The culture containers used were plastic flowerpots containing loamy sand with approximately 3.0% of humus as the substrate. The seeds of the test plants were sown separately for each species.
For the post-emergence treatment, the test plants were first grown to a height of 3 to 15 cm, depending on the plant habit, and only then treated with the active ingredients which had been suspended or emulsified in water. For this purpose, the test plants were either sown directly and grown in the same containers, or they were first grown separately as seedlings and transplanted into the test containers a few days prior to treatment.
Depending on the species, the plants were kept at 10-25° C. or 20-35° C., respectively.
The test period extended over 2 to 4 weeks. During this time, the plants were tended, and their response to the individual treatments was evaluated.
Evaluation was carried out using a scale from 0 to 100. 100 means no emergence of the plants, or complete destruction of at least the aerial moieties, and 0 means no damage, or normal course of growth. A good herbicidal activity is given at values of at least 70 and a very good herbicidal activity is given at values of at least 85.
The plants used in the greenhouse experiments were of the following species: […]

Echinocloa crus-galli [1] = test: greenhouse test, post-emergence treatment, ECHCG; details: post-emergence
Summary of the method: (§1)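 Plants grown in loamy sand (~3.0% humus) to 3–15 cm height, then sprayed post-emergence with active ingredient suspended or emulsified in water. Kept at 10–25 °C or 20–35 °C by species for 2–4 weeks; damage scored visually 0–100 (100 = complete destruction of aerial parts, 0 = normal growth).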

Echinocloa crus-galli [2] = test: greenhouse test, pre-emergence treatment, ECHCG; details: 2000 g/ha
Summary of the method: (§2)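 Damage scored visually on a 0-100 scale (100 = no emergence or complete destruction of aerial parts, 0 = normal growth) after 2 to 4 weeks. Treatment was applied pre-emergence as an aqueous suspension or emulsion immediately after sowing in loamy sand (approx. 3.0% humus).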

Apera spica-venti = test: greenhouse test, pre-emergence treatment, APESV; details: 2000 g/ha
Summary of the method: as §2

Alopecurus myosuroides = test: greenhouse test, post-emergence treatment, ALOMY; details: post-emergence
Summary of the method: as §1

Cc1cc(-c2nc(C3CC3)ncc2-c2ccccc2Br)co1 [Ex. 271]
herbicidal activity (Setaria viridis; 1000 g/ha): very good (a very good herbicidal activity is given at values of at least 85)
herbicidal activity (Echinocloa crus-galli [1]; 1000 g/ha): good (A good herbicidal activity is given at values of at least 70)

Cc1ccoc1-c1nc(C2CC2)ncc1-c1ccccc1Cl [Ex. 30]
herbicidal activity (Echinocloa crus-galli [2]): very good (a very good herbicidal activity is given at values of at least 85)
herbicidal activity (Setaria viridis; 2000 g/ha): very good (a very good herbicidal activity is given at values of at least 85)
herbicidal activity (Apera spica-venti): very good (a very good herbicidal activity is given at values of at least 85)
herbicidal activity (Alopecurus myosuroides; 2000 g/ha): very good (a very good herbicidal activity is given at values of at least 85)

CC(C)=Cc1nc(C2CC2)ncc1-c1ccccc1Cl [Ex. 70]
herbicidal activity (Setaria viridis; 2000 g/ha): very good (a very good herbicidal activity is given at values of at least 85)
herbicidal activity (Alopecurus myosuroides; 2000 g/ha): very good (a very good herbicidal activity is given at values of at least 85)

Ic1ccccc1-c1cnc(C2CC2)nc1-c1ccco1 [Ex. 76]
herbicidal activity (Setaria viridis; 1000 g/ha): very good (a very good herbicidal activity is given at values of at least 85)
herbicidal activity (Alopecurus myosuroides; 1000 g/ha): good (A good herbicidal activity is given at values of at least 70)

Clc1ccc(-c2nc(C3CC3)ncc2-c2ccccc2Cl)s1 [Ex. 119]
herbicidal activity (Setaria viridis; 1000 g/ha): good (A good herbicidal activity is given at values of at least 70)
herbicidal activity (Alopecurus myosuroides; 1000 g/ha): very good (a very good herbicidal activity is given at values of at least 85)

Clc1ccccc1-c1cnc(C2CC2)nc1C=C1CCOCC1 [Ex. 92]
herbicidal activity (Setaria viridis; 2000 g/ha): good (A good herbicidal activity is given at values of at least 70)
herbicidal activity (Echinocloa crus-galli [1]; 2000 g/ha): good (A good herbicidal activity is given at values of at least 70)
herbicidal activity (Alopecurus myosuroides; 2000 g/ha): good (A good herbicidal activity is given at values of at least 70)

CC(O)c1nc(C2CC2)ncc1-c1ccccc1Br (stereo not drawn) [Ex. 114]
herbicidal activity (Setaria viridis; 500 g/ha): very good (a very good herbicidal activity is given at values of at least 85)

CC(C)(C)CCc1nc(C2CC2)ncc1-c1ccccc1Cl [Ex. 103]
herbicidal activity (Setaria viridis; 2000 g/ha): very good (a very good herbicidal activity is given at values of at least 85)

OC1(Cc2nc(C3CC3)ncc2-c2ccccc2Cl)CCCC1 [Ex. 74]
herbicidal activity (Setaria viridis; 2000 g/ha): very good (a very good herbicidal activity is given at values of at least 85)

Clc1ccccc1-c1cnc(C2CC2)nc1-c1ccc(Br)o1 [Ex. 31]
herbicidal activity (Echinocloa crus-galli [2]): very good (a very good herbicidal activity is given at values of at least 85)
herbicidal activity (Setaria viridis; 2000 g/ha): very good (a very good herbicidal activity is given at values of at least 85)
herbicidal activity (Apera spica-venti): very good (a very good herbicidal activity is given at values of at least 85)
herbicidal activity (Alopecurus myosuroides; 2000 g/ha): very good (a very good herbicidal activity is given at values of at least 85)

Clc1ccccc1-c1cnc(C2CC2)nc1-c1ccco1 [Ex. 24]
herbicidal activity (Echinocloa crus-galli [2]): very good (a very good herbicidal activity is given at values of at least 85)
herbicidal activity (Setaria viridis; 2000 g/ha): very good (a very good herbicidal activity is given at values of at least 85)
herbicidal activity (Apera spica-venti): very good (a very good herbicidal activity is given at values of at least 85)
herbicidal activity (Echinocloa crus-galli [1]; 2000 g/ha): very good (a very good herbicidal activity is given at values of at least 85)

Fc1cccc(-c2cnc(C3CC3)nc2-c2ccco2)c1Cl [Ex. 33]
herbicidal activity (Setaria viridis; 2000 g/ha): good (A good herbicidal activity is given at values of at least 70)

CCOP(=O)(OCC)C(Cc1nc(C2CC2)ncc1-c1ccccc1Cl)P(=O)(OCC)OCC [Ex. 88]
herbicidal activity (Setaria viridis; 2000 g/ha): very good (a very good herbicidal activity is given at values of at least 85)

Clc1ccccc1-c1cnc(C2CC2)nc1CC1CCOCC1 [Ex. 96]
herbicidal activity (Setaria viridis; 1000 g/ha): very good (a very good herbicidal activity is given at values of at least 85)

Ic1ccccc1-c1cnc(C2CCC2)nc1-c1ccco1 [Ex. 78]
herbicidal activity (Setaria viridis; 1000 g/ha): very good (a very good herbicidal activity is given at values of at least 85)
